PMC2937023, “Molecular Decoy to the Y-Box Binding Protein-1 Suppresses the Growth of Breast and Prostate Cancer Cells whilst Sparing Normal Cell Viability” (PLoS ONE, 2010)
Values belong to the compound of their own block, whether it stands above or below them. Ends that are not written are not given here.

Experiments:
[1] = test system: YB-1 binding to the EGFR promoter; conditions: previous work; cited from earlier work
Description: After 72 h, the CPP reduced HER-2 and EGFR protein levels in AU565 cells (Figure 3A). […] Further, in SUM149 cells, EGFR protein and mRNA levels were decreased (Figure 3C-D).

SUM149 cells = assay: Monolayer growth assay, SUM149; assay type: cell-based, human; conditions: SUM149, 72 h, 0–50 µM scrambled peptide, MTS
Description: (§3) For monolayer assays, cells were plated at 5000 cells per well in a 96 well plate. The following day cells were treated with diluent, 0–50 µM of scrambled peptide, or 0–50 µM CPP. The BT474, BT474-m1, HR5 and HR6 cells were also tested in combination with trastuzumab (BC Cancer Agency pharmacy, Vancouver, BC) at 20 µg/mL. […] Growth was shown as a percentage of diluent control and changes in growth were considered significant at P<0.01.

184htert cells = assay: Monolayer growth assay, normal immortalized mammary epithelial cells; assay type: cell-based, human; conditions: 72 h, MTS proliferation assay, 0–50 µM
Description: For monolayer assays, cells were plated at 5000 cells per well in a 96 well plate. The following day cells were treated with diluent, 0–50 µM of scrambled peptide, or 0–50 µM CPP. […] Growth was shown as a percentage of diluent control and changes in growth were considered significant at P<0.01.

[2] = test system: EpCAM^+ primary normal human breast epithelial cells; assay: Normal mammary epithelial cells assay, MTS growth; assay type: cell-based; conditions: cells from reduction mammoplasties of two patients, 6 or 25 µM, 72 h
[3] = test system: YB-1 binding to the EGFR promoter; assay: Electrophoretic mobility shift assay (gel shift), SUM149 nuclear extracts; assay type: biochemical, human; conditions: SUM149 nuclear protein 5 µg pre-incubated 20 min with 25 µM peptide, EGFR2a oligonucleotides
Description: The gel shift assay was performed using EGFR2a oligonucleotides as previously described. Briefly, SUM149 cells were harvested and cytoplasmic/nuclear fractions were obtained using the NE-PER kit followed by EMSA using the Lightshift Chemiluminescent EMSA kit (both kits from Pierce Biotechnology, Rockford, IL). Nuclear extracts were confirmed to contain RSK and YB-1 by immunoblotting. Nuclear protein (5 µg) was pre-incubated for 20 min with unlabeled oligonucleotide plus acetic acid control, scrambled peptide (25 µM), or CPP (25 µM or 50 µM) prior to the addition of biotin-labeled oligonucleotide. Chicken anti-YB-1 (1 µg) was used as positive control. Reactions were run on a non-denaturing polyacrylamide gel, transferred to a nylon membrane, cross-linked at 120 mJ/cm^2 using a Stratalinker (Stratagene, La Jolla, CA) and visualized with chemiluminescence (Pierce Biotechnology).

[4] = test system: EpCAM^+ primary normal human breast epithelial cells; assay: Normal mammary epithelial cells assay, colony-forming cell (CFC) assay; assay type: cell-based; conditions: cells from two patients, 6 or 25 µM for 48 hours, colonies counted 7 days post-seeding
Description: EpCAM^+ primary normal human breast epithelial cells from two patients were obtained, prepared, and isolated as previously described, [36]. In all subsequent experiments, the primary epithelial cells were grown in Epicult-B media (StemCell Technologies, Vancouver, BC) supplemented with 5% fetal calf serum. For the colony-forming cell (CFC) assay, EpCAM^+ cells from each patient were first seeded at 7000 cells/well into a 96 well plate and treated the following day with either diluent, scrambled peptide (6 or 25 µM), or CPP (6 or 25 µM) in triplicate wells for 48 hours. Following this peptide incubation, cells were harvested with trypsin, a single cell suspension was generated, and cells were seeded into the CFC assay as previously described, [37]. Colonies were counted 7 days post-seeding.

HR6 cells = assay: Monolayer growth assay, HR6 (trastuzumab resistant), with or without trastuzumab; assay type: cell-based, human; conditions: 72 h, MTS
Description: as §3

HR5 cells = assay: Monolayer growth assay, HR5 (trastuzumab resistant), with or without trastuzumab; assay type: cell-based, human; conditions: 72 h, MTS
Description: as §3

P-YB-1^S102 [5] = assay: Immunoblotting of P-YB-1^S102 in AU565 cells; assay type: cell-based, human; conditions: 12.5–50 µM CPP, 72 h, western blot
Description: (§1) Cell lines used herein were evaluated for YB-1, the activating kinases RSK and AKT, and the downstream targets EGFR and HER-2. […] Proteins were extracted using ELB plus protease and phosphatase inhibitors and western blotting was performed as previously described. The following antibodies were used to detect proteins by immunoblotting (unless otherwise indicated, all antibodies were from Cell Signaling Technology, Danvers, MA): P-YB-1^S102 (1/500), YB-1 (1/2000, Abcam, Cambridge, MA), EGFR (1/5000, Stressgen, San Diego, CA), P-p90RSK^S380 (1/500), RSK1/RSK2/RSK3 (1/1000), HER-2 (1/1000, Abcam), AKT (1/1000), creb (1/1000), pan-actin (1/1000), vinculin (1/1000). Blots were quantified using ImageJ software.

P-YB-1^S102 [6] = assay: Immunoblotting of P-YB-1^S102 in SUM149 cells; assay type: cell-based, human
Description: as §1

P-YB-1^S102 [7] = assay: Immunoblotting of P-YB-1^S102 in LNCap cells; assay type: cell-based, human; conditions: 12.5–50 µM CPP, 72 h, western blot
Description: as §1

HER-2 [8] = assay: Real-time quantitative RT-PCR of HER-2 transcript in AU565 cells; assay type: cell-based, human; conditions: 50 µM CPP, 24 h, qRT-PCR, 18S housekeeping
Description: (§2) RNA was isolated from log growing AU565 and SUM149 cells treated with 50 µM scrambled CPP or 50 µM CPP for 24 h using the RNeasy Mini kit from Qiagen (Mississauga, ON). The RNA was reverse transcribed and amplified using HER-2 (for AU565 cells) or EGFR (for SUM149 and AU565 cells) specific primers and probes (Applied Biosystems, Foster City, CA). 18S mRNA was quantified as a housekeeping gene (Applied Biosystems).

HER-2 [9] = assay: Immunoblotting of HER-2 protein in AU565 cells; assay type: cell-based, human; conditions: 72 h, western blot
Description: as §1

EGFR [10] = assay: Immunoblotting of EGFR protein in AU565 cells; assay type: cell-based, human; conditions: 72 h, western blot
Description: as §1

BT474-m1 cells = assay: Monolayer growth assay, BT474-m1, with or without trastuzumab; assay type: cell-based, human; conditions: 72 h, MTS
Description: as §3

EGFR [11] = assay: Immunoblotting of EGFR protein in SUM149 cells; assay type: cell-based, human; conditions: 72 h, western blot
Description: as §1

EGFR [12] = assay: Real-time quantitative RT-PCR of EGFR transcript in AU565 cells; assay type: cell-based, human; conditions: 50 µM CPP, 24 h, qRT-PCR, 18S housekeeping
Description: as §2

EGFR [13] = assay: Real-time quantitative RT-PCR of EGFR transcript in SUM149 cells; assay type: cell-based, human; conditions: 50 µM CPP, 24 h, qRT-PCR
Description: as §2

BT474 cells = assay: Monolayer growth assay, BT474, with or without trastuzumab; assay type: cell-based, human; conditions: 72 h, MTS
Description: as §3

Compound: CC(=O)O[C@@H]1[C@@H](OC(C)=O)[C@@H](O)[C@H](Oc2c(-c3ccc(O)cc3)oc3cc(O)cc(O)c3c2=O)O[C@H]1C [SL0101]
YB-1 binding to the EGFR promoter [1]: reverse YB-1 binding

YB-1 binding to the EGFR promoter (gel shift) [3]: bound with high affinity
Compound: RALKYGVRP [scrambled peptide]
effect on growth (SUM149 cells): no effect
growth of normal human mammary epithelial cells (184htert cells): neither the scrambled control peptide nor the CPP inhibited growth
growth of normal breast epithelial cells (MTS) [2]: neither the scrambled peptide nor the CPP had any growth effect
growth of normal breast epithelial cells (CFC output) [4]: neither the scrambled peptide nor the CPP had any growth effect

YB-1 binding to the EGFR promoter (gel shift) [3]: blocked binding
Compound: RQIKIWFQNRRMKWKKPRKYLRSVG-OH [CPP]
sensitivity to trastuzumab (HR6 cells; HR6, CPP with trastuzumab 20 µg/ml): overcome drug insensitivity
growth, CPP (HR6 cells; HR6 trastuzumab resistant cells): significantly suppress growth
sensitivity to trastuzumab (HR5 cells; HR5, CPP with trastuzumab 20 µg/ml): overcome drug insensitivity
growth, CPP (HR5 cells; HR5 trastuzumab resistant cells): significantly suppress growth
phosphorylation of YB-1^S102 (P-YB-1^S102 [5]): decreased phosphorylation
phosphorylation of YB-1^S102 (P-YB-1^S102 [6]; 12.5–50 µM CPP, 72 h, western blot): decreased phosphorylation
decrease of P-YB-1^S102 (P-YB-1^S102 [6]; 1 h, western blot quantified using ImageJ, relative P-YB-1:YB-1): 32%
phosphorylation of YB-1^S102 (P-YB-1^S102 [7]): decreased phosphorylation
reduction of HER-2 transcript level (HER-2 [8]): ~50%
HER-2 protein level (HER-2 [9]): reduced
EGFR protein level (EGFR [10]): reduced
sensitivity to trastuzumab (BT474-m1 cells; BT474-m1, CPP 12.5 or 50 µM with trastuzumab 20 µg/ml): increased the sensitivity
growth, CPP alone (BT474-m1 cells; BT474-m1, CPP 12.5 or 50 µM): suppressed the growth
EGFR protein level (EGFR [11]): decreased
reduction of EGFR transcript level (EGFR [12]): ~50%
EGFR mRNA level (EGFR [13]): decreased
sensitivity to trastuzumab (BT474 cells; BT474, CPP 12.5 or 50 µM with trastuzumab 20 µg/ml): increased the sensitivity
growth, CPP alone (BT474 cells; BT474, CPP 12.5 or 50 µM): suppressed the growth

Compound: COc1cccc(-c2cc(=O)c3ccccc3o2)c1N [PD098059]
YB-1 binding to the EGFR promoter [1]: reverse YB-1 binding
